Assays:
Format in all cases: functional
[1] = tested on: Monilinia laxa; assay: Fungicidal activity against Monilinia laxa isolate MLK12 assessed as mycelial growth at 1 ug/ml at 25 degC after 4 days
[2] = tested on: Monilinia laxa; assay: Fungicidal activity against Monilinia laxa isolate MLK1 assessed as mycelial growth at 1 ug/ml at 25 degC after 4 days
[3] = tested on: Monilinia laxa; assay: Fungicidal activity against Monilinia laxa isolate MLC2 assessed as mycelial growth at 1 ug/ml at 25 degC after 4 days
[4] = tested on: Monilinia laxa; assay: Fungicidal activity against Monilinia laxa isolate MLX1 assessed as mycelial growth at 1 ug/ml at 25 degC after 4 days
[5] = tested on: Monilinia laxa; assay: Fungicidal activity against Monilinia laxa isolate MLP4 assessed as mycelial growth at 1 ug/ml at 25 degC after 4 days
[6] = tested on: Monilinia laxa; assay: Fungicidal activity against Monilinia laxa isolate MLBO2 assessed as mycelial growth at 1 ug/ml at 25 degC after 4 days
[7] = tested on: Monilinia laxa; assay: Fungicidal activity against Monilinia laxa isolate MLA1 assessed as mycelial growth at 1 ug/ml at 25 degC after 4 days
[8] = tested on: Monilinia laxa; assay: Fungicidal activity against Monilinia laxa isolate MLX5 assessed as mycelial growth at 1 ug/ml at 25 degC after 4 days
[9] = tested on: Monilinia laxa; assay: Fungicidal activity against Monilinia laxa isolate MLP2 assessed as mycelial growth at 1 ug/ml at 25 degC after 4 days
[10] = tested on: Monilinia laxa; assay: Fungicidal activity against Monilinia laxa isolate MLBO5 assessed as mycelial growth at 1 ug/ml at 25 degC after 4 days
[11] = tested on: Monilinia laxa; assay: Fungicidal activity against Monilinia laxa isolate MLG1 assessed as mycelial growth at 1 ug/ml at 25 degC after 4 days
[12] = tested on: Monilinia laxa; assay: Fungicidal activity against Monilinia laxa isolate MLK12 assessed as mycelial growth at 0.5 ug/ml at 25 degC after 4 days
[13] = tested on: Monilinia laxa; assay: Fungicidal activity against Monilinia laxa isolate MLK1 assessed as mycelial growth at 0.5 ug/ml at 25 degC after 4 days
[14] = tested on: Monilinia laxa; assay: Fungicidal activity against Monilinia laxa isolate MLC2 assessed as mycelial growth at 0.5 ug/ml at 25 degC after 4 days
[15] = tested on: Monilinia laxa; assay: Fungicidal activity against Monilinia laxa isolate MLX1 assessed as mycelial growth at 0.5 ug/ml at 25 degC after 4 days
[16] = tested on: Monilinia laxa; assay: Fungicidal activity against Monilinia laxa isolate MLP4 assessed as mycelial growth at 0.5 ug/ml at 25 degC after 4 days
[17] = tested on: Monilinia laxa; assay: Fungicidal activity against Monilinia laxa isolate MLA1 assessed as mycelial growth at 0.5 ug/ml at 25 degC after 4 days
[18] = tested on: Monilinia laxa; assay: Fungicidal activity against Monilinia laxa isolate MLX5 assessed as mycelial growth at 0.5 ug/ml at 25 degC after 4 days
[19] = tested on: Monilinia laxa; assay: Fungicidal activity against Monilinia laxa isolate MLP2 assessed as mycelial growth at 0.5 ug/ml at 25 degC after 4 days
[20] = tested on: Monilinia laxa; assay: Fungicidal activity against Monilinia laxa isolate MLBO5 assessed as mycelial growth at 0.5 ug/ml at 25 degC after 4 days
[21] = tested on: Monilinia laxa; assay: Fungicidal activity against Monilinia laxa isolate MLBO2 assessed as mycelial growth at 0.5 ug/ml at 25 degC after 4 days
[22] = tested on: Monilinia laxa; assay: Fungicidal activity against Monilinia laxa isolate MLG1 assessed as mycelial growth at 0.5 ug/ml at 25 degC after 4 days
[23] = tested on: Monilinia laxa; assay: Fungicidal activity against Monilinia laxa isolate MLK1 assessed as mycelial growth at 0.1 ug/ml at 25 degC after 4 days
[24] = tested on: Monilinia laxa; assay: Fungicidal activity against Monilinia laxa isolate MLC2 assessed as mycelial growth at 0.1 ug/ml at 25 degC after 4 days
[25] = tested on: Monilinia laxa; assay: Fungicidal activity against Monilinia laxa isolate MLX1 assessed as mycelial growth at 0.1 ug/ml at 25 degC after 4 days
[26] = tested on: Monilinia laxa; assay: Fungicidal activity against Monilinia laxa isolate MLP4 assessed as mycelial growth at 0.1 ug/ml at 25 degC after 4 days
[27] = tested on: Monilinia laxa; assay: Fungicidal activity against Monilinia laxa isolate MLK12 assessed as mycelial growth at 0.1 ug/ml at 25 degC after 4 days
[28] = tested on: Monilinia laxa; assay: Fungicidal activity against Monilinia laxa isolate MLA1 assessed as mycelial growth at 0.1 ug/ml at 25 degC after 4 days
[29] = tested on: Monilinia laxa; assay: Fungicidal activity against Monilinia laxa isolate MLX5 assessed as mycelial growth at 0.1 ug/ml at 25 degC after 4 days
[30] = tested on: Monilinia laxa; assay: Fungicidal activity against Monilinia laxa isolate MLP2 assessed as mycelial growth at 0.1 ug/ml at 25 degC after 4 days
[31] = tested on: Monilinia laxa; assay: Fungicidal activity against Monilinia laxa isolate MLBO5 assessed as mycelial growth at 0.1 ug/ml at 25 degC after 4 days
[32] = tested on: Monilinia laxa; assay: Fungicidal activity against Monilinia laxa isolate MLBO2 assessed as mycelial growth at 0.1 ug/ml at 25 degC after 4 days
[33] = tested on: Monilinia laxa; assay: Fungicidal activity against Monilinia laxa isolate MLG1 assessed as mycelial growth at 0.1 ug/ml at 25 degC after 4 days
[34] = tested on: Monilinia laxa; assay: Fungicidal activity against Monilinia laxa isolate MLK12 assessed as mycelial growth at 0.05 ug/ml at 25 degC after 4 days
[35] = tested on: Monilinia laxa; assay: Fungicidal activity against Monilinia laxa isolate MLK1 assessed as mycelial growth at 0.05 ug/ml at 25 degC after 4 days
[36] = tested on: Monilinia laxa; assay: Fungicidal activity against Monilinia laxa isolate MLC2 assessed as mycelial growth at 0.05 ug/ml at 25 degC after 4 days
[37] = tested on: Monilinia laxa; assay: Fungicidal activity against Monilinia laxa isolate MLX1 assessed as mycelial growth at 0.05 ug/ml at 25 degC after 4 days
[38] = tested on: Monilinia laxa; assay: Fungicidal activity against Monilinia laxa isolate MLP4 assessed as mycelial growth at 0.05 ug/ml at 25 degC after 4 days
[39] = tested on: Monilinia laxa; assay: Fungicidal activity against Monilinia laxa isolate MLA1 assessed as mycelial growth at 0.05 ug/ml at 25 degC after 4 days
[40] = tested on: Monilinia laxa; assay: Fungicidal activity against Monilinia laxa isolate MLX5 assessed as mycelial growth at 0.05 ug/ml at 25 degC after 4 days
[41] = tested on: Monilinia laxa; assay: Fungicidal activity against Monilinia laxa isolate MLP2 assessed as mycelial growth at 0.05 ug/ml at 25 degC after 4 days
[42] = tested on: Monilinia laxa; assay: Fungicidal activity against Monilinia laxa isolate MLBO5 assessed as mycelial growth at 0.05 ug/ml at 25 degC after 4 days
[43] = tested on: Monilinia laxa; assay: Fungicidal activity against Monilinia laxa isolate MLBO2 assessed as mycelial growth at 0.05 ug/ml at 25 degC after 4 days
[44] = tested on: Monilinia laxa; assay: Fungicidal activity against Monilinia laxa isolate MLG1 assessed as mycelial growth at 0.05 ug/ml at 25 degC after 4 days
[45] = tested on: Monilinia laxa; assay: Fungicidal activity against Monilinia laxa isolate MLK12 assessed as mycelial growth at 5 ug/ml at 25 degC after 4 days
[46] = tested on: Monilinia laxa; assay: Fungicidal activity against Monilinia laxa isolate MLK1 assessed as mycelial growth at 5 ug/ml at 25 degC after 4 days
[47] = tested on: Monilinia laxa; assay: Fungicidal activity against Monilinia laxa isolate MLC2 assessed as mycelial growth at 5 ug/ml at 25 degC after 4 days
[48] = tested on: Monilinia laxa; assay: Fungicidal activity against Monilinia laxa isolate MLX1 assessed as mycelial growth at 5 ug/ml at 25 degC after 4 days
[49] = tested on: Monilinia laxa; assay: Fungicidal activity against Monilinia laxa isolate MLP4 assessed as mycelial growth at 5 ug/ml at 25 degC after 4 days
[50] = tested on: Monilinia laxa; assay: Fungicidal activity against Monilinia laxa isolate MLBO2 assessed as mycelial growth at 5 ug/ml at 25 degC after 4 days
[51] = tested on: Monilinia laxa; assay: Fungicidal activity against Monilinia laxa isolate MLA1 assessed as mycelial growth at 5 ug/ml at 25 degC after 4 days
[52] = tested on: Monilinia laxa; assay: Fungicidal activity against Monilinia laxa isolate MLX5 assessed as mycelial growth at 5 ug/ml at 25 degC after 4 days
[53] = tested on: Monilinia laxa; assay: Fungicidal activity against Monilinia laxa isolate MLP2 assessed as mycelial growth at 5 ug/ml at 25 degC after 4 days
[54] = tested on: Monilinia laxa; assay: Fungicidal activity against Monilinia laxa isolate MLBO5 assessed as mycelial growth at 5 ug/ml at 25 degC after 4 days
[55] = tested on: Monilinia laxa; assay: Fungicidal activity against Monilinia laxa isolate MLG1 assessed as mycelial growth at 5 ug/ml at 25 degC after 4 days

SMILES	Activity [12] [%]	Activity [13] [%]	Activity [14] [%]	Activity [15] [%]	Activity [16] [%]	Activity [17] [%]	Activity [18] [%]	Activity [19] [%]	Activity [20] [%]	Activity [21] [%]	Activity [22] [%]	Activity [34] [%]	Activity [35] [%]	Activity [36] [%]	Activity [37] [%]	Activity [38] [%]	Activity [39] [%]	Activity [40] [%]	Activity [41] [%]	Activity [42] [%]	other results
CCCCNC(=O)n1c(NC(=O)OC)nc2ccccc21 [BENOMYL]	–	–	–	–	–	–	–	–	–	–	–	–	–	–	–	–	–	–	–	–	Activity [1]: 100%; Activity [2]: 100%; Activity [3]: 80.01%; Activity [4]: 100%; Activity [5]: 100%; Activity [6]: 0%; Activity [7]: 0%; Activity [8]: 0%; Activity [9]: 0%; Activity [10]: 0%; Activity [11]: 0%
O=C(Nc1ccccc1-c1ccc(Cl)cc1)c1cccnc1Cl [BOSCALID]	45.05	62.05	0	60.03	0	42.73	0	66.82	0	36.67	0	–	–	–	–	–	–	–	–	–	–
CC1(C(=O)Nc2ccc(O)c(Cl)c2Cl)CCCCC1 [FENHEXAMID]	–	–	–	–	–	–	–	–	–	–	–	–	–	–	–	–	–	–	–	–	Activity [23]: 17.65%; Activity [24]: 50.35%; Activity [25]: 21.82%; Activity [26]: 45.83%; Activity [27]: 60.05%; Activity [28]: 23.05%; Activity [29]: 50.34%; Activity [30]: 25%; Activity [31]: 21.05%; Activity [32]: 10.03%; Activity [33]: 0%
N#Cc1c[nH]cc1-c1cccc2c1OC(F)(F)O2 [FLUDIOXONIL]	–	–	–	–	–	–	–	–	–	–	–	12.78	13.66	18.3	21.09	13.89	16.22	17.5	16.05	11.01	Activity [43]: 17.99%; Activity [44]: 15.05%
CC(C)NC(=O)N1CC(=O)N(c2cc(Cl)cc(Cl)c2)C1=O [IPRODIONE]	45.46	57.14	46.61	21.88	45.23	30.22	54.55	28.12	0	40.44	35.42	–	–	–	–	–	–	–	–	–	–
COC(=O)N(OC)c1ccccc1COc1ccn(-c2ccc(Cl)cc2)n1 [PYRACLOSTROBIN]	–	–	–	–	–	–	–	–	–	–	–	37.5	50.05	34.48	29.41	47.32	36.82	51.15	50	49.62	Activity [43]: 40.65%; Activity [44]: 25%
CC(C)(C)C(O)(CCc1ccc(Cl)cc1)Cn1cncn1 (centres undefined) [TEBUCONAZOLE]	–	–	–	–	–	–	–	–	–	–	–	30	22.24	39.39	30.77	35.71	47.41	65.45	34.29	49.65	Activity [43]: 48.34%; Activity [44]: 25.3%
COC(=O)NC(=S)Nc1ccccc1NC(=S)NC(=O)OC [THIOPHANATE METHYL]	–	–	–	–	–	–	–	–	–	–	–	–	–	–	–	–	–	–	–	–	Activity [45]: 100%; Activity [46]: 100%; Activity [47]: 95.25%; Activity [48]: 100%; Activity [49]: 93.75%; Activity [50]: 0%; Activity [51]: 0%; Activity [52]: 0%; Activity [53]: 0%; Activity [54]: 0%; Activity [55]: 0%
CCC(C)(NC(=O)c1cc(Cl)c(C)c(Cl)c1)C(=O)CCl (centres undefined) [ZOXAMIDE]	0	0	0	0	0	48.95	39.09	59.09	44	43.33	36.05	–	–	–	–	–	–	–	–	–	–
